Measurements published in US12097202B2 (Kadmon Corporation, LLC, priority 2022, dated 2024).

What was measured:
rats = experiment: General toxicology studies in rats; format: in vivo, rat
CYP1A2 = molecular target: T1, CYP1A2 (Homo sapiens, UniProt P05177); experiment: In vitro enzyme inhibition, CYP1A2; format: in vitro ADME
T1 sequence (P05177 1-516): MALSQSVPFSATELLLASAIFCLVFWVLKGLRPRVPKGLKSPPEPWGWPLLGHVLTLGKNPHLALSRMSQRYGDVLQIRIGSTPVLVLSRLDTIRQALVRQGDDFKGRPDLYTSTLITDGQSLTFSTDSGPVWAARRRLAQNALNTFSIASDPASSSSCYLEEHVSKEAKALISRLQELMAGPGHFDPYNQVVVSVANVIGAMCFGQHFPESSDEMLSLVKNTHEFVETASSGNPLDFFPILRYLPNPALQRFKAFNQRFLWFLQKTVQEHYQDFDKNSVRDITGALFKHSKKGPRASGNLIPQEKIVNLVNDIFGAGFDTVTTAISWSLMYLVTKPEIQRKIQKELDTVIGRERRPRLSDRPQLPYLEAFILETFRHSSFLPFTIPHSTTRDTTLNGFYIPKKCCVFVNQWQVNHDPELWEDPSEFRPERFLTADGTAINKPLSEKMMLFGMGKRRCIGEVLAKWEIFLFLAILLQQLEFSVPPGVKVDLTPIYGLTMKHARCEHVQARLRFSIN

[1] = tested on: bacterial mutagenicity (Ames); experiment: in vitro bacterial mutagenicity (Ames) assay; format: cell-based
dogs = experiment: General toxicology studies in dogs; format: in vivo, dog
[2] = Clinical pharmacokinetics in chronic GVHD patients; format: in vivo, human
rat bone marrow = experiment: in vivo rat bone marrow micronucleus assay
UGT1A9 = molecular target: T2, UGT1A9 (Homo sapiens, UniProt O60656); experiment: In vitro enzyme inhibition, UGT1A9; format: in vitro ADME
T2 sequence (O60656 26-530): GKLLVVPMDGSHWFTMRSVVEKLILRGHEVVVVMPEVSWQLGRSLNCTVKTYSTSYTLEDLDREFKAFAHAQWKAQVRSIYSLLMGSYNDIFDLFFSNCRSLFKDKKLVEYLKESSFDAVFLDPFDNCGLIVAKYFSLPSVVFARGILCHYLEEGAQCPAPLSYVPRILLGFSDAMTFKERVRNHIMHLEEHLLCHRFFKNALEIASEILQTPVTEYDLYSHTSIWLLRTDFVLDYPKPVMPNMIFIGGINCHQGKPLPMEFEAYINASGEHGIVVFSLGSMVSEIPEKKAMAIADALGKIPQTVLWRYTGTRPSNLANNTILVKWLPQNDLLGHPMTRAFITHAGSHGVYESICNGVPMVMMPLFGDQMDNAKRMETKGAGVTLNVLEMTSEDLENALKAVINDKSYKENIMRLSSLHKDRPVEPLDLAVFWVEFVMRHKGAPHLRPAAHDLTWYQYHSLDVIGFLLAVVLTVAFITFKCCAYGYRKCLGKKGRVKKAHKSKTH

CYP2D6 [3] = molecular target: T3, CYP2D6 (Homo sapiens, UniProt P10635); experiment: In vitro metabolism by CYP2D6; format: in vitro ADME
T3 sequence (P10635 whole entry): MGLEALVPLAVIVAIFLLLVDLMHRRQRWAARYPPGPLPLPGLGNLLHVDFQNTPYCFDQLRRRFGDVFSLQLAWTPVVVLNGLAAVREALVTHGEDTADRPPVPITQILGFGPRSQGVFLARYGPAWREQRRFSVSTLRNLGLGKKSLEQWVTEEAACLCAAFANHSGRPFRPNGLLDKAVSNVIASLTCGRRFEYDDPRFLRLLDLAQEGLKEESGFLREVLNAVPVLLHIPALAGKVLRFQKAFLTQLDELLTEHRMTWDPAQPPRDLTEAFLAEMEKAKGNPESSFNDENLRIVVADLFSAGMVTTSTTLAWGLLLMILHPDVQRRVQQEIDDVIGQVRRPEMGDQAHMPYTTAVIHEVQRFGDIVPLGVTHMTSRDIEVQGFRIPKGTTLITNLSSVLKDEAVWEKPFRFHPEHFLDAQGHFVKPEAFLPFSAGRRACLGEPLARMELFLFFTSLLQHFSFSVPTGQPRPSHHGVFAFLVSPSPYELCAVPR

CYP2D6 [4] = molecular target: T3, CYP2D6; experiment: In vitro enzyme inhibition, CYP2D6; format: in vitro ADME

SMILES: CC(C)NC(=O)COc1cccc(-c2nc(Nc3ccc4[nH]ncc4c3)c3ccccc3n2)c1 [belumosudil, 2-{3-[4-(1H-indazol-5-ylamino)-2-quinazolinyl]phenoxy}-N-(propan-2-yl) acetamide]
- dose with decreased follicular development in ovaries (rats): 275 mg/kg/day
- inhibition of CYP1A2 (CYP1A2): inhibitor
- genotoxicity, bacterial mutagenicity (Ames) assay [1]: not genotoxic
- dose with spermatozoa degeneration (dogs): 35 mg/kg/day
- increase of Cmax and AUC with dose ([2]; dosage range of 200 and 400 mg): approximately proportional
- effect of age (18 to 77 years), sex, weight (38.6 to 143 kg), mild to moderate renal impairment on pharmacokinetics ([2]; human, in vivo): No clinically significant differences
- genotoxicity, bone marrow micronucleus assay (rat bone marrow): not genotoxic
- inhibition of UGT1A9 (UGT1A9): inhibitor
- metabolism by CYP2D6 (CYP2D6 [3]): to a lesser extent
- inhibition of CYP2D6 (CYP2D6 [4]): inhibitor
